Experimental data reported in PubChem BioAssay (NCI).
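Step 1: Grow cells in 96-well plates. Step 2: Expose to compound for 48 hours at 5 concentrations. Step 3: Interpolate endpoints linearly; if unreached, use highest concentration. GI50 marks 50% less growth. TGI denotes the concentration required for complete inhibition of growth.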

What was measured:
Assay in all cases: NCI tumour cell line growth inhibition, 48 h
[1] = tested on: SK-MEL-2 melanoma
[2] = tested on: RXF 393 renal
[3] = tested on: BT-549 breast
[4] = tested on: KM12 colon
[5] = tested on: SK-MEL-5 melanoma
[6] = tested on: OVCAR-3 ovarian
[7] = tested on: PC-3 prostate
[8] = tested on: SNB-19 CNS
[9] = tested on: HL-60(TB) leukemia
[10] = tested on: OVCAR-8 ovarian
[11] = tested on: UACC-257 melanoma
[12] = tested on: EKVX NSCLC
[13] = tested on: NCI-H226 lung
[14] = tested on: MOLT-4 leukemia
[15] = tested on: OVCAR-4 ovarian
[16] = tested on: COLO 205 colon
[17] = tested on: ACHN renal
[18] = tested on: HS 578T breast
[19] = tested on: NCI-H522 lung
[20] = tested on: U251 CNS
[21] = tested on: DU-145 prostate
[22] = tested on: HCT-116 colon
[23] = tested on: UO-31 renal
[24] = tested on: HOP-92 NSCLC
[25] = tested on: HT29 colon
[26] = tested on: CAKI-1 renal
[27] = tested on: SK-MEL-28 melanoma
[28] = tested on: SW-620 colon
[29] = tested on: M14 melanoma
[30] = tested on: MCF7 breast
[31] = tested on: NCI-H23 lung
[32] = tested on: SR leukemia
[33] = tested on: HCC-2998 colon
[34] = tested on: SK-OV-3 ovarian
[35] = tested on: HCT-15 colon
[36] = tested on: SNB-75 CNS
[37] = tested on: NCI-H460 lung
[38] = tested on: MDA-MB-231 breast
[39] = tested on: 786-0 renal
[40] = tested on: A549 NSCLC
[41] = tested on: SF-295 CNS
[42] = tested on: HOP-62 NSCLC
[43] = tested on: RPMI-8226 leukemia
[44] = tested on: MDA-MB-435
[45] = tested on: TK-10 renal
[46] = tested on: MALME-3M melanoma
[47] = tested on: IGROV1 ovarian
[48] = tested on: UACC-62 melanoma
[49] = tested on: SF-539 CNS
[50] = tested on: NCI/ADR-RES ovarian
[51] = tested on: OVCAR-5 ovarian
[52] = tested on: K-562 leukemia
[53] = tested on: LOX IMVI melanoma
[54] = tested on: SF-268 CNS
[55] = tested on: A498 renal

Compound: Cc1ccc(/C=C/c2c(C(=O)/C=C/c3ccc(Cl)cc3)c(C)nc3ccccc23)cc1
- GI50 [1]: 2.01 µM
- TGI [1]: 4.96 µM
- GI50 [2]: 1.79 µM
- TGI [2]: 3.45 µM
- GI50 [3]: 1.4 µM
- TGI [3]: 2.93 µM
- GI50 [4]: 1.87 µM
- TGI [4]: 3.77 µM
- GI50 [5]: 1.62 µM
- TGI [5]: 3 µM
- GI50 [6]: 1.84 µM
- TGI [6]: 3.51 µM
- GI50 [7]: 2.2 µM
- TGI [7]: 6.42 µM
- GI50 [8]: 1.75 µM
- TGI [8]: 3.28 µM
- GI50 [9]: 2.12 µM
- TGI [9]: 5.76 µM
- GI50 [10]: 2.17 µM
- TGI [10]: 6.46 µM
- GI50 [11]: 2.15 µM
- TGI [11]: 4.8 µM
- GI50 [12]: 1.86 µM
- TGI [12]: 4.53 µM
- GI50 [13]: 1.92 µM
- TGI [13]: 3.92 µM
- GI50 [14]: 2.18 µM
- TGI [14]: > 100 µM
- GI50 [15]: 3.97 µM
- TGI [15]: 17.9 µM
- GI50 [16]: 2.17 µM
- TGI [16]: 5.46 µM
- GI50 [17]: 1.54 µM
- TGI [17]: 2.88 µM
- GI50 [18]: 2.75 µM
- TGI [18]: 8.66 µM
- GI50 [19]: 1.86 µM
- TGI [19]: 5.94 µM
- GI50 [20]: 1.7 µM
- TGI [20]: 3.38 µM
- GI50 [21]: 1.74 µM
- TGI [21]: 3.27 µM
- GI50 [22]: 0.526 µM
- TGI [22]: 2.02 µM
- GI50 [23]: 1.16 µM
- TGI [23]: 2.38 µM
- GI50 [24]: 1.62 µM
- TGI [24]: 3.53 µM
- GI50 [25]: 2.05 µM
- TGI [25]: 14.9 µM
- GI50 [26]: 1.27 µM
- TGI [26]: 2.74 µM
- GI50 [27]: 1.84 µM
- TGI [27]: 3.41 µM
- GI50 [28]: 1.9 µM
- TGI [28]: 5.11 µM
- GI50 [29]: 1.64 µM
- TGI [29]: 3.4 µM
- GI50 [30]: 1.58 µM
- TGI [30]: 4.95 µM
- GI50 [31]: 1.38 µM
- TGI [31]: 3.22 µM
- GI50 [32]: 1.92 µM
- TGI [32]: > 100 µM
- GI50 [33]: 1.49 µM
- TGI [33]: 2.96 µM
- GI50 [34]: 3.74 µM
- TGI [34]: 15.7 µM
- GI50 [35]: 1.45 µM
- TGI [35]: 3.97 µM
- GI50 [36]: 1.51 µM
- TGI [36]: 3.24 µM
- GI50 [37]: 1.73 µM
- TGI [37]: 3.49 µM
- GI50 [38]: 1.77 µM
- TGI [38]: 3.68 µM
- GI50 [39]: 1.6 µM
- TGI [39]: 3.2 µM
- GI50 [40]: 2.45 µM
- TGI [40]: 6.85 µM
- GI50 [41]: 1.74 µM
- TGI [41]: 3.23 µM
- GI50 [42]: 2.15 µM
- TGI [42]: 4.68 µM
- GI50 [43]: 2.13 µM
- TGI [43]: 5.95 µM
- GI50 [44]: 2.05 µM
- TGI [44]: 4.22 µM
- GI50 [45]: 2.53 µM
- TGI [45]: 4.84 µM
- GI50 [46]: 1.74 µM
- TGI [46]: 3.17 µM
- GI50 [47]: 1.03 µM
- TGI [47]: 2.38 µM
- GI50 [48]: 1.75 µM
- TGI [48]: 3.72 µM
- GI50 [49]: 1.81 µM
- TGI [49]: 3.3 µM
- GI50 [50]: 1.99 µM
- TGI [50]: 4.45 µM
- GI50 [51]: 2.16 µM
- TGI [51]: 5.86 µM
- GI50 [52]: 2.63 µM
- TGI [52]: > 100 µM
- GI50 [53]: 1.53 µM
- TGI [53]: 2.87 µM
- GI50 [54]: 2.15 µM
- TGI [54]: 5.85 µM
- GI50 [55]: 1.77 µM
- TGI [55]: 3.28 µM
